Reference: patent US20040229821A1, “Orally administrable pharmaceutical compositions and methods for preventing food-drug interaction” (priority 2003, published 2004)
Read-outs that look alike come from different tables or passages of the source.

Columns and labels:
[1] = humans, oral; cited from earlier work
[2] = rats, oral; cited from earlier work
[3] = dogs, oral; cited from earlier work
thrombin = thrombin (Homo sapiens, UniProt P00734); conditions: cited from earlier work
trypsin [4] = target: T1, trypsin (Bos taurus, UniProt P00760); conditions: cited from earlier work
T1 construct: gene PRSS1
T1 sequence (P00760 24-246): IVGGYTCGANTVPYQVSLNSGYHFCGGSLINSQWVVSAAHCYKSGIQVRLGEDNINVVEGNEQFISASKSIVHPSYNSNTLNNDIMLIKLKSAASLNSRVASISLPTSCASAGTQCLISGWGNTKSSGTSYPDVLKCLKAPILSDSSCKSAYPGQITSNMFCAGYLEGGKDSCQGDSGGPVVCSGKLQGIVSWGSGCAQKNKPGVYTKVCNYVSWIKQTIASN

trypsin [5] = target: T1, trypsin; assay: Activity (IC50) on trypsin; type: biochemical; conditions: stated in words
Excerpt: (§1) Other oral thrombin inhibitors under development than Drug A have been reported to show changes of bioavailability by food intake. […] The above two substances have different activities not only on thrombin but also on trypsin. […] In other words, the bioavailability of S18326 with higher activity on trypsin was more affected by food intake than S31922. […] Its activity on trypsin has not yet been reported, but since it is an ariginine (Arg) derivative like S18326, it is anticipated to have high activity on trypsin. […] The bioavailability of melagatran is affected by food intake because it has a charge in the intestinal pH, and so its membrane permeability is decreased [D. Gustafsson et al., The direct thrombin inhibitor melagatran and its oral prodrug H376/95: Intestinal absorption properties, biochemical and pharmacodynamic effects, Thrombosis Res., 101(2001) 171-181]. In order to improve the decreased membrane permeability, its prodrug was prepared and confirmed to have improved bioavailability and to prevent the bioavailability variance by food intake. However, melagatran is also one in the series of strong basic group, amidine, and thus has a strong inhibitory effect on trypsin.

[6] = Pharmacokinetic test of Drug A in rats, empty stomach vs after food intake; type: in vivo; conditions: oral, absorbed well on an empty stomach
Excerpt: as §1

[7] = Pharmacokinetic test of Drug A in dogs, empty stomach vs after food intake; type: in vivo; conditions: oral
Excerpt: as §1
Drug A is an orally active thrombin inhibitor, and is effective for preventing or treating the formation of thrombus. […]

R-Piq-Pro-Arg-H
Change of bioavailability after food intake [1]: remarkably decreased | Change of bioavailability after food intake [2]: remarkably decreased

CC(=O)N[C@H](Cc1ccccc1)C(=O)N(CC(=O)N[C@@H](CCCN=C(N)N)B(O)O)C1CCCC1 [Example S-18326]
Bioavailability after food intake [3]: 6% | Bioavailability on an empty stomach [3]: 27% | IC50 (thrombin): 0.0036 µM | IC50 (trypsin [4]): 0.02 µM

N=C(N)c1ccc(CNC(=O)[C@@H]2CCCN2C(=O)[C@H](NCC(=O)O)C(c2ccccc2)c2ccccc2)s1 [Drug A, (2S)-N-{5-[amino(imino)methyl]-2-thienyl}methyl-1-{(2R)-2-[(carboxymethyl)amino]-3,3-diphenylpropanoyl}-2-pyrrolidinecarboxamide]
Activity on the digestive enzyme trypsin (trypsin [5]): high activity | Change of bioavailability when administered after food intake [6]: remarkably decreased | Bioavailability after food intake relative to empty stomach ([7]; dog, in vivo, solution of Drug A, read-out: Bioavailability after food intake compared with on an empty stomach): 10% | Change of bioavailability when administered after food intake ([7]; absorbed well on an empty stomach): remarkably decreased

NCCCCC(NC(=O)C1(C(=O)NCCc2ccccc2)CCCC1)B(O)O (stereo not drawn) [Example S-31922]
Bioavailability after food intake [3]: 22% | Bioavailability on an empty stomach [3]: 36% | IC50 (thrombin): 0.043 µM | IC50 (trypsin [4]): 0.34 µM

N=C(N)c1ccc(CNC(=O)[C@@H]2CCN2C(=O)[C@H](NCC(=O)O)C2CCCCC2)cc1 [melagatran]
Change of bioavailability after food intake [1]: remarkably decreased
